Here are results for one substance from US20260144882A1, “ANTI-NECTIN-4 ANTIBODY DRUG CONJUGATE AND USE THEREOF” (Bio-Thera Solutions, Ltd., priority 2022, published 2026).

Where “and” joins values, the source holds several entries; their conditions need not be identical. Equal values may be shown once.

Assay [1] concerns the target T1, hNectin-4-His (human Nectin-4 extracellular antigen) (Homo sapiens, UniProt Q96NY8).
T1 construct: made in house
T1 sequence (Q96NY8 with tags, fused parts or gaps): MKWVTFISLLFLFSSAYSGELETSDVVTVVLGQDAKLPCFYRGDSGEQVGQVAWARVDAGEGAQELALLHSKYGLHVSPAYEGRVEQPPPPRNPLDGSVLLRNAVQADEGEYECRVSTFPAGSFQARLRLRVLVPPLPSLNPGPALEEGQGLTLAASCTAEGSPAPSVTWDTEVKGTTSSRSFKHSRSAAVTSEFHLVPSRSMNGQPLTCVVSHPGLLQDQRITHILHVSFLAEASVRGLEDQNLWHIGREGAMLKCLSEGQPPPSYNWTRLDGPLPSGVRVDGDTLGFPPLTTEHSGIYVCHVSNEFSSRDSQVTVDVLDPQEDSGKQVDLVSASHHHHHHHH
The assay is described as follows: SPR (BIAcore) affinity assay. Type of assay: binding. How it is done: In this study, the affinity of the antibodies for the human Nectin-4 extracellular antigen was detected by surface plasmon resonance (SPR) technique (BIAcore: GE Healthcare, T200).
Capture was performed using a Protein A chip (Cat #29127556, GE Healthcare), and 5 µg/mL antibody dilutions (in HBS-EP+(10×): GE Healthcare, Cat #BR-1006-69, with a working concentration of 1×) were directed through the experimental flow channels (Fc2 and Fc4) at a flow rate of 10 μL/min for 10 s; then, the flow rate was adjusted to 30 μL/min, the hNectin-4-His dilutions at different concentrations (0 nM, 1.23 nM, 3.7 nM, 11.1 nM, 33.3 nM, and 100 nM) were sequentially added, and simultaneously directed through the surfaces of the experimental flow channels (Fc2 and Fc4) and reference flow channels (Fc1 and Fc3) with an association time of 120 s and a dissociation time of 180 s, and finally, the chip was regenerated in Glycine 1.5.
In general terms: Surface plasmon resonance follows binding to a sensor surface in real time, without labels.

The next assay relates to T-47D cells. Nature of the assay: Endocytosis efficiency assay by FACS. The class given is cell-based, human. How it is done: In this assay, the relative amount of antibodies remaining on the cell surface after co-incubation at 37° C. for a certain period of time was detected by FACS to reflect the endocytosis efficiency. The procedures are briefly described as follows: T-47D cells (human ductal breast cancer cells, derived from the Cell Bank of Chinese Academy of Sciences, Cat.No. TCHu 87); the antibodies of interest were adjusted to 10 µg/mL and co-incubated with the cells on ice for 1 h; the cells were washed 3 times with pre-cooled PBS, and then placed at 37° C. and incubated for 0 h, 2 h and 4 h; 0.2% N3Na was added to stop the endocytosis reaction; the cells were washed with PBS thrice, followed by the addition of the PE-labeled anti-human Fc secondary antibody (Invitrogen 12-4998-82); the cells were incubated at 4° C. for 30 min; the red fluorescence signal was detected on a flow cytometer.
A general note: A flow cytometer gives signals particle by particle.

The next assay has as its target T2, mouse mNectin-4 protein (Mus musculus, UniProt Q8R007).
T2 construct: purchased ACRO NE4-M52H3
T2 sequence (Q8R007 31-508): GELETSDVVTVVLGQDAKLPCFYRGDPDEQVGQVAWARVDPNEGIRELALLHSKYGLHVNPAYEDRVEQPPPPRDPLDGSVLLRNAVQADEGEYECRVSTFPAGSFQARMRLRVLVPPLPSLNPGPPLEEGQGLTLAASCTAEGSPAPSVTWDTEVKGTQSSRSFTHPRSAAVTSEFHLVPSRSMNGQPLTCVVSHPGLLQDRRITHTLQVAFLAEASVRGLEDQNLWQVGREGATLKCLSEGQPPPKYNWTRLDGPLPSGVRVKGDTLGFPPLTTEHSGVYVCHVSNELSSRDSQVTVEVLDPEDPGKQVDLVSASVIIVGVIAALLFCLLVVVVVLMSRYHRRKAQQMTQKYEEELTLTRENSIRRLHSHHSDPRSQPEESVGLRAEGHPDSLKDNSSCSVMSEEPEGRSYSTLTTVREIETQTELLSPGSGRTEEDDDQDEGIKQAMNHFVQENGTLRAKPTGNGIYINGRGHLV
Nature of the assay: Species specificity ELISA, mouse Nectin-4. The note with it: in words. The class given is binding. The protocol: The binding of different antibodies to different species of Nectin-4 proteins was detected by ELISA. hNectin-4-His, monkey cNectin-4 protein (ACRO, NE4-C52H4) and mouse mNectin-4 protein (ACRO, NE4-M52H3) were immobilized; antibodies ASG-22, 1F3, 1G8, 3A10, and 10F4 were serially diluted, and HRP-labeled anti-human-Kappa secondary antibody was added for chromogenic reaction.
(An ELISA detects its analyte on a solid surface through an enzyme-linked reagent.)

Consider “ASG-22: reference antibody; heavy chain SEQ ID NO: 5, light chain SEQ ID NO: 6 [reference compound]”, for which the “Ka” value in assay [1] (Table 12, association rate) came to 723000 M⁻¹ s⁻¹. Also, the “Kd” value in assay [1] (Table 12, dissociation rate) was found to be 0.00436 s⁻¹. Besides, in assay [1] (Table 13), the “ka” value is 577000 M⁻¹ s⁻¹ and 540000 M⁻¹ s⁻¹; the “kd” value is 0.00581 s⁻¹ and 0.0059 s⁻¹. Also, in the assay with T-47D cells (Table 14), the “Endocytosis rate at 2 h” value is given as 49.8% and the “Endocytosis rate at 4 h” value is listed as 74.1%. Further, in the assay on T-47D cells (Table 14, 37° C.), the “MFI (mean fluorescence intensity) 2 h” value came to 53739.06 and the “MFI (mean fluorescence intensity) 4 h” value was 27694.23. In addition, in the assay on T-47D cells (Table 15), the “Endocytosis rate at 2 h” value is given as 35.2% and the “Endocytosis rate at 4 h” value is 35.4%. Further, the “MFI (mean fluorescence intensity) 0 h” value in the assay with T-47D cells (Table 15, 37° C., 0 h) is on record as 58,591.2. In addition, in the assay with T-47D cells (Table 15, 37° C.), the “MFI (mean fluorescence intensity) 2 h” value is listed as 37,973.0 and the “MFI (mean fluorescence intensity) 4 h” value is reported as 37,844.0. The “binding to mouse Nectin-4” value with mouse mNectin-4 protein is listed as “weak binding”.
